Data from patent US20060217418A1, “Substituted alkyl amido piperidines” (priority 2001, published 2006).

Target: T1, rat MCH1 receptor (Rattus norvegicus, UniProt P97639)
T1 construct: operatively linked to DNA encoding the rat MCH1 receptor so as to permit expression thereof; expressed in transfected cells; host or cells: Human embryonic kidney Peak rapid 293 (Peakr293) cells, transient calcium phosphate transfection, membranes
Experiment: Radioligand binding assay at cloned rat MCH1 receptor ([3H]Compound A)
Settings: cloned rat MCH1, Peakr293 cell membranes, 0.08 nM [3H]Compound A, 25° C., 90 minutes; read-out: Ki(MCH-1)

T1 sequence (P97639 whole entry): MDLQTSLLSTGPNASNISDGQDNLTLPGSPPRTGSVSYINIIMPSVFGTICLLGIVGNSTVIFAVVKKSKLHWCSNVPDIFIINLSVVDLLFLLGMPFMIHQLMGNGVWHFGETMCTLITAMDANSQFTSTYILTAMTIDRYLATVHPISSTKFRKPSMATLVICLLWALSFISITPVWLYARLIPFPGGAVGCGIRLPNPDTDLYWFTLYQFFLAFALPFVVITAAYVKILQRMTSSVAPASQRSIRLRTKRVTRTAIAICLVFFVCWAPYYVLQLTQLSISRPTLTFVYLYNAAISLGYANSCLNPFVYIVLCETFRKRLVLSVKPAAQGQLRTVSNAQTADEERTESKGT

Ki	Compound
2.8 nM	CC(C(=O)NCCCN1CCC(c2cccc(NC(=O)C3CC3)c2)CC1)(c1ccccc1)c1ccccc1 [Example 123, N-[3-(1-{3-[(2,2-DIPHENYLPROPANOYL)AMINO]PROPYL}-4-PIPERIDINYL)PHENYL] CYCLOPROPANECARBOXAMIDE]
39.9 nM	Cc1ccc(NC(=O)C(C)C)cc1C1CCN(CCCNC(=O)C(F)(F)c2ccccc2)CC1 [Example 124]
124 nM	CC(C)C(=O)Nc1cccc(C2CCN(CCCNC(=O)C(F)(F)c3ccccc3)CC2)c1 [Example 125, N-{3-[1-(3{[DIFLUORO(PHENYL)ACETYL]AMINO}PROPYL)-4-PIPERIDINYL] PHENYL}2-METHYLPROPANAMIDE]
175 nM	CC(C)C(=O)Nc1ccc(F)c(C2CCN(CCCNC(=O)C(C)(C)c3ccc(Cl)cc3)CC2)c1 [Example 127]
4.5 nM	CC(C)C(=O)Nc1ccc(F)c(C2CCN(CCCNC(=O)C3(c4ccc(F)cc4)CCCC3)CC2)c1 [Example 129]
2.4 nM	Cc1ccc(NC(=O)C(C)C)cc1C1CCN(CCCNC(=O)C2(c3ccc(F)cc3Cl)CCCCC2)CC1 [Example 134]
10.2 nM	CC(C)C(=O)Nc1cccc(C2CCN(CCCNC(=O)C3(c4ccc(F)cc4Cl)CCCCC3)CC2)c1 [Example 138]
33.2 nM	CC(C)OC(=O)Nc1cccc(C2CCN(CCCNC(=O)C(c3ccccc3)c3ccccc3)CC2)c1 [Example 144, Isopropyl 3-(1-{3-[(Diphenylacetyl)Amino]Propyl}-4-Piperidinyl) Phenylcarbamate]
6.2 nM	CC(C)OC(=O)Nc1cccc(C2CCN(CCCNC(=O)C(c3ccc(F)cc3)c3ccc(F)cc3)CC2)c1 [Example 146, ISOPROPYL 3-[1-(3-{[BIS(4-FLUOROPHENYL)ACETYL]AMINO}PROPYL)-4-PIPERIDINYL]PHENYLCARBAMATE]
42 nM	CC(C)OC(=O)Nc1cccc(C2CCN(CCCNC(=O)C3(c4ccc(F)cc4Cl)CCCCC3)CC2)c1 [Example 147, ISOPROPYL 3-{1-[3-({[1-(2-CHLORO-4-FLUOROPHENYL)CYCLOHEXYL]CARBONYL} AMINO)PROPYL]-4-PIPERIDINYL}PHENYLCARBAMATE]
144 nM	CC(C)C(=O)Nc1ccc(C2CCN(CCCNC(=O)C(c3ccccc3)c3ccccc3)CC2)cc1 [Example 148]
467 nM	CCCC(=O)Nc1ccc(C2CCN(CCCNC(=O)C(c3ccccc3)c3ccccc3)CC2)cc1 [Example 149]
115 nM	Nc1cccc(C2CCN(CCCNC(=O)C(c3ccccc3)c3ccccc3)CC2)c1 [Example 152]
20.3 nM	Cc1ccc(NC(=O)C(C)C)cc1C1CCN(CCCNC(=O)C(O)c2ccc(F)c(F)c2)CC1 (stereo not drawn) [Example 153, N-{3-[1-(3-{[(3,4-difluorophenyl)(hydroxy)acetyl]amino}propyl)-4-piperdinyl]-4-methylphenyl}-2-methylpropanamide]
24.4 nM	Cc1ccc(NC(=O)C(C)C)cc1C1CCN(CCCNC(=O)[C@@H](C)c2ccccc2)CC1 [Example 161, 2-methyl-N-{4-methyl-3-[1-(3-{[(2S)-2-phenylpropanoyl]amino}propyl)-4-piperidinyl]phenyl} propanamide]
8.6 nM	CC[C@@H](C(=O)NCCCN1CCC(c2cc(NC(=O)C(C)C)ccc2C)CC1)c1ccccc1 [Example 162, (2R)-N-(3-{4-[5-(isobutyrylamino)-2-methylphenyl]-1-piperidinyl}propyl)-2-phenylbutan amide]
20 nM	CC[C@H](C(=O)NCCCN1CCC(c2cc(NC(=O)C(C)C)ccc2C)CC1)c1ccccc1 [Example 163, (2S)-N-(3-{4-[5-(isobutyrylamino)-2-methylphenyl]-1-piperidinyl}propyl)-2-phenylbutanamide]

Second part, the compound before the results:

Compound	Ki
CCN(CCCN1CCC(c2cccc(NC(=O)C(C)C)c2)CC1)C(=O)C(c1ccccc1)c1ccccc1 [Example 126]	3 nM
CC(C)C(=O)Nc1ccc(F)c(C2CCN(CCCNC(=O)C3(c4ccc(Cl)cc4)CCCC3)CC2)c1 [Example 128]	2.9 nM
CC(C)C(=O)Nc1ccc(F)c(C2CCN(CCCNC(=O)C3(c4ccc(Cl)cc4)CCCCC3)CC2)c1 [Example 130]	2.6 nM
CC(C)C(=O)Nc1ccc(F)c(C2CCN(CCCNC(=O)C3(c4ccc(F)cc4)CCCCC3)CC2)c1 [Example 131]	4 nM
Cc1ccc(C(C(=O)NCCCN2CCC(c3cc(NC(=O)C(C)C)ccc3F)CC2)c2ccc(C)cc2)cc1 [Example 132]	0.6 nM
CC(C)C(=O)Nc1ccc(F)c(C2CCN(CCCNC(=O)C3(c4ccc(F)cc4Cl)CCCCC3)CC2)c1 [Example 133, 1-(2-CHLORO-4-FLUOROPHENYL)-N-(3-{4-[2-FLUORO-5-(ISOBUTYRYLAMINO) PHENYL]-1-PIPERIDINYL}PROPYL)CYCLO HEXANECARBOXAMIDE]	5.9 nM
Cc1ccc(NC(=O)C(C)C)cc1C1CCN(CCCNC(=O)C2(c3ccc(F)cc3Cl)CCCC2)CC1 [Example 135, 1-(2-CHLORO-4-FLUOROPHENYL)-N-(3-{4-[5-(ISOBUTYRYLAMINO)-2-METHYL PHENYL]-1-PIPERIDINYL}PROPYL)CYCLOPENTANECARBOXAMIDE]	5.2 nM
CC(C)C(=O)Nc1ccc(F)c(C2CCN(CCCNC(=O)C(F)(F)c3ccccc3)CC2)c1 [Example 136]	48.7 nM
CC(C)C(=O)Nc1ccc(F)c(C2CCN(CCCNC(=O)C3(c4ccc(F)cc4Cl)CCCC3)CC2)c1 [Example 137, 1-(2-CHLORO-4-FLUOROPHENYL)-N-(3-{4-[2-FLUORO-5-(ISOBUTYRYLAMINO) PHENYL]-1-PIPERIDINYL}PROPYL)CYCLOPENTANECARBOXAMIDE]	11.8 nM
CN(C)C(=O)Nc1cccc(C2CCN(CCCNC(=O)C(c3ccc(F)cc3)c3ccc(F)cc3)CC2)c1 [Example 139]	33.4 nM
O=C(Nc1cccc(C2CCN(CCCNC(=O)C(c3ccccc3)c3ccccc3)CC2)c1)OCc1ccccc1 [Example 140, Benzyl 3-(1-{3-[(Diphenylacetyl)Amino]Propyl}-4-Piperidinyl)Phenylcarbamate]	180 nM
O=C(Nc1cccc(C2CCN(CCCNC(=O)C(c3ccc(F)cc3)c3ccc(F)cc3)CC2)c1)OCc1ccccc1 [Example 141, Benzyl 3-[1-(3-{[bis(4-fluorophenyl)acetyl]amino}propyl)-4-piperidinyl]phenylcarbamate]	8.8 nM
CC(C)OC(=O)Nc1cccc(C2CCN(CCCNC(=O)C(C)(C)c3ccc(Cl)cc3)CC2)c1 [Example 142, Isopropyl 3-[1-(3-{[2-(4-Chlorophenyl)-2-Methylpropanoyl]Amino}Propyl)-4-Piperidinyl]Phenyl carbamate]	77.4 nM
CC(C)OC(=O)Nc1cccc(C2CCN(CCCNC(=O)C(c3ccc(Cl)cc3)c3ccc(Cl)cc3)CC2)c1 [Example 143, Isopropyl 3-[1-(3-{[bis(4-chlorophenyl)acetyl]amino}propyl)-4-piperidinyl]phenylcarbamate]	6.2 nM
Cc1ccc(C(C(=O)NCCCN2CCC(c3cccc(NC(=O)OC(C)C)c3)CC2)c2ccc(C)cc2)cc1 [Example 145, ISOPROPYL 3-[1-(3-{[BIS(4-METHYLPHENYL)ACETYL]AMINO}PROPYL)-4-PIPERIDINYL]PHENYLCARBAMATE]	26.9 nM
O=C(CC(c1ccccc1)c1ccccc1)NCCCN1CCC(c2cccc(NC(=O)C3CC3)c2)CC1 [Example 151, N-[3-(1-{3-[(3,3-DIPHENYLPROPANOYL)AMINO]PROPYL}-4-PIPERIDINYL)PHENYL] CYCLOPROPANECARBOXAMIDE]	62 nM
